Measurements: patent US10358435B2, “Triazolyl pyrimidinone compounds as PDE2 inhibitors” (Merck Sharp & Dohme Corp., priority 2015, dated 2019)

Experiments:
human PDE2A1 = human PDE2A1 (Homo sapiens (Human), UniProt O00408); assay: IMAP fluorescence polarization assay, human PDE2A1 (PDE selectivity panel); type: biochemical; conditions: FAM cAMP 50 nM with 1000 nM cGMP
In short: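 GST-tagged human PDE2A1 from insect cells; enzyme set to ~20% conversion of 50 nM FAM-cAMP with 1000 nM cGMP, 60 min at room temperature in pH 7.2 Tris/MgCl2/DTT buffer, ten 3-fold compound dilutions. IMAP FP read, apparent Ki derived using apparent KM 10,000 nM.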

Rhesus PDE2A3 = Rhesus PDE2A3 (Macaca mulatta, UniProt B3VTJ2); assay: IMAP fluorescence polarization assay, rhesus PDE2A3 lysate from transfected AD293 cells; type: biochemical, rhesus macaque; conditions: FAM-labeled cAMP 50 nM, activator cGMP 1 uM; read-out: Rhesus PDE2 Ki
Experimental: The activity of the compounds in accordance with the present invention as PDE2 inhibitors may be readily determined using a fluorescence polarization (FP) methodology (Huang, W., et al., J. Biomol Screen, 2002, 7: 215).
In a typical experiment the PDE2 inhibitory activity of the compounds of the present invention was determined in accordance with the following experimental method. Rhesus PDE2A3 was amplified from rhesus macaque brain cDNA (Biochain Institute, Hayward, Calif.) using primers based on human PDE2A sequence (accession NM_002599.3) where the forward primer containing a Kozak consensus was 5′-[…]-3′ and the reverse primer was 5′-[…]-3′. Amplification with Easy-A High-Fidelity PCR cloning enzyme (Stratagene, La Jolla, Calif.) was 95° C. for 2 minutes followed by thirty three cycles of 95° C. for 40 seconds, 52° C. for 30 seconds, and 72° C. for 2 minutes 48 seconds. Final extension was 72° C. for 7 minutes. The PCR product was TA cloned into pcDNA3.3-TOPO (Invitrogen, Carlsbad, Calif.) according to standard protocol. A consensus sequence was developed from multiple clones and then deposited into GenBank (EU812167). AD293 cells (Stratagene, La Jolla, Calif.) with 70-80% confluency were transiently transfected with rhesus PDE2A3/pcDNA3.3-TOPO using Lipofectamine 2000 according to manufacturer specifications (Invitrogen, Carlsbad, Calif.). Cells were harvested 48 hours post-transfection and lysed by sonication (setting 3, 10×5 sec pulses) in a buffer containing 20 mM HEPES pH 7.4, 1 mM EDTA and Complete Protease Inhibitor Cocktail Tablets (Roche, Indianapolis, Ind.). Lysate was collected by centrifugation at 75,000×g for 20 minutes at 4° C. and supernatant utilized for evaluation of PDE2 activity. The fluorescence polarization assay for cyclic nucleotide phosphodiesterases was performed using an IMAP® FP kit supplied by Molecular Devices, Sunnyvale, Calif. (product # R8139). […] Assays were performed at room temperature in 384-well microtiter plates with an incubation volume of 20.2 μL. Solutions of test compounds were prepared in DMSO and serially diluted with DMSO to yield 8 μL of each of 10 solutions differing by 3-fold in concentration, at 32 serial dilutions per plate. […] 0% of inhibition is determined by using DMSO (1% final concentrations).
A Labcyte Echo 555 (Labcyte, Sunnyvale, Calif.) is used to dispense 200 nL from each well of the titration plate to the 384 well assay plate. Ten microliters of a solution of enzyme (1/2000 final dilution from aliquots; sufficient to produce 20% substrate conversion) was added to the assay plate. Next 10 uL of a separate solution of the substrate FAM-labeled cAMP (50 nM final concentration product # R7506 from Molecular Devices) and the activator cGMP (1 uM final concentration), prepared in the assay buffer (10 mM Tris HCl, pH 7.2, 10 mM MgCl2, 0.05% NaN3 0.01% Tween-20, and 1 mM DTT) was added to the assay plate and shaken to mix. The reaction is allowed to proceed at room temperature for 60 minutes. A binding solution is then made from the kit components, comprised of 80% Solution A, 20% Solution B and binding reagent at a volume of 1/600 the total binding solution. The enzymatic reaction is stopped by addition of 60 μL of the binding solution to each well of the assay plates and the plates are sealed and shaken for 30 seconds. The plate was incubated at room temperature for at least one hour prior to determining the fluorescence polarization (FP). The parallel and perpendicular fluorescence of each well of the plate was measured using a Tecan Genios Pro plate reader (Tecan, Switzerland) or Perkin Elmer EnVision™ plate reader (Waltham, Mass.). Fluorescence polarization (mP) was calculated from the parallel (S) and perpendicular (P) fluorescence of each sample well and the analogous values for the median control well, containing only substrate (So and Po), using the following equation: Polarization (mP)=1000*(S/So−P/Po)/(S/So+P/Po).

[1] = reported in Brandon et al. 2007; cited from earlier work
other PDE isoforms = conditions: reported in Brandon et al. 2007; cited from earlier work

Chain of human PDE2A1 (O00408 other isoform, or with tags, fused parts or gaps): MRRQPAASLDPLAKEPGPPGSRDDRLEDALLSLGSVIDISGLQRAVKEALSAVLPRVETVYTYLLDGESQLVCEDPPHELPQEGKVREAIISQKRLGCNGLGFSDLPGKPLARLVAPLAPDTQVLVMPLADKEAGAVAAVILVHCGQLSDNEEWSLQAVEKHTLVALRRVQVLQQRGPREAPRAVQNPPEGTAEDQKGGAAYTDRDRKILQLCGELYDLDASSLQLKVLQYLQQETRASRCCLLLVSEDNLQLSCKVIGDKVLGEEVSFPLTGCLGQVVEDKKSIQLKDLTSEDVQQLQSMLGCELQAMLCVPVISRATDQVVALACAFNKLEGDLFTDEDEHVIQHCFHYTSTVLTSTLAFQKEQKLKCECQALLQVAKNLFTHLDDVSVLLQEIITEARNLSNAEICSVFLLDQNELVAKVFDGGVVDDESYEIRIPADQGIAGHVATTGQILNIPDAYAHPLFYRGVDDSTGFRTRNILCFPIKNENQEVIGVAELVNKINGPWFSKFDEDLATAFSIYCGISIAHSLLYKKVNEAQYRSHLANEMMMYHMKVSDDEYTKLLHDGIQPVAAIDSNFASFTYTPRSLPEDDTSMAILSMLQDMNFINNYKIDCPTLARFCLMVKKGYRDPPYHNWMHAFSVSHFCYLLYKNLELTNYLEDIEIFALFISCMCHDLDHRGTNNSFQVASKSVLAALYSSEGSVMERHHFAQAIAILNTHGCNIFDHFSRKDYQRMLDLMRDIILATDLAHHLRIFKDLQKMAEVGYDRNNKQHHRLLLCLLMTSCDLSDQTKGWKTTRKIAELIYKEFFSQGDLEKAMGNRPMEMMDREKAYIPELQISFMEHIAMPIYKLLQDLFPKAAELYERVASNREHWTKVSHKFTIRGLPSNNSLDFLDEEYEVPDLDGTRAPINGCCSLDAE
Chain of Rhesus PDE2A3 (B3VTJ2 1-941): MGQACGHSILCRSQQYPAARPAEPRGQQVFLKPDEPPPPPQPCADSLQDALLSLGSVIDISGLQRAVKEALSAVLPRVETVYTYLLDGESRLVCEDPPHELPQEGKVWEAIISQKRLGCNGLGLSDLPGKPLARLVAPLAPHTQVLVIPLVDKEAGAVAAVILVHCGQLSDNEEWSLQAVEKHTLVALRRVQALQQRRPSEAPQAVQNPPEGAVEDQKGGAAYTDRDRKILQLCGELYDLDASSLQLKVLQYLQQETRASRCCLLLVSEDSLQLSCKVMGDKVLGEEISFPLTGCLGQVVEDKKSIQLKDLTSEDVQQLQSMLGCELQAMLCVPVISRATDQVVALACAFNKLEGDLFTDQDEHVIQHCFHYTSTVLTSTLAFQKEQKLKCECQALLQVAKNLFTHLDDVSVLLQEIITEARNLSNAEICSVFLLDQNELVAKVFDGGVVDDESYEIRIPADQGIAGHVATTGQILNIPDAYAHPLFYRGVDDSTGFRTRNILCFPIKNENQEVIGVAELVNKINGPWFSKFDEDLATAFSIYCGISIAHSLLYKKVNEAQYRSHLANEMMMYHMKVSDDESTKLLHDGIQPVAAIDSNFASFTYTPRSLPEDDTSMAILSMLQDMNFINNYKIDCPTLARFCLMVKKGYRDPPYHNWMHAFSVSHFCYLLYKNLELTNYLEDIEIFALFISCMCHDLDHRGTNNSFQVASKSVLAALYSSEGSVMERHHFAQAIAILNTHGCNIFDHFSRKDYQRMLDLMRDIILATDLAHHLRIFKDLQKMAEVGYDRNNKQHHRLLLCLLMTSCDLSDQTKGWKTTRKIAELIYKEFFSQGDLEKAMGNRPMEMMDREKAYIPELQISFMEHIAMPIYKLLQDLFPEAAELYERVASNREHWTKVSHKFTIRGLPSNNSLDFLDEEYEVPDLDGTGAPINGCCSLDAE

| Compound | Ki (human PDE2A1) [nM] | Ki (Rhesus PDE2A3) [nM] | brain penetration [1] | potency at other PDE isoforms (other PDE isoforms) |
| --- | --- | --- | --- | --- |
| CC(c1ccc(C(F)(F)F)cc1F)n1cc(-c2cc(=O)[nH]c(CC3CC3)n2)nn1 (stereo not drawn) [Example 14, 2-(cyclopropylmethyl)-6-(1-(1-(2-fluoro-4-(trifluoromethyl)phenyl)ethyl)-1H-1,2,3-triazol-4-yl)pyrimidin-4(3H)-one] | 20.9 | 24.9 | – | – |
| Cc1nc(-c2cn(C(C)c3ccc(OC(F)(F)F)cc3)nn2)cc(=O)[nH]1 (stereo not drawn) [Example 11, 2-methyl-6-(1-(1-(4-(trifluoromethoxy)phenyl)ethyl)-1H-1,2,3-triazol-4-yl) pyrimidin-4(3H)-one] | 55.8 | 50.4 | – | – |
| Cc1nc(-c2cn([C@H](C)c3ccc(C(F)(F)F)cc3C)nn2)cc(=O)[nH]1 (single isomer, unassigned) [Example 9] | 6.9 | 9.4 | – | – |
| CC/C=C/c1nc(-c2cn(C(C)c3ccc(C(F)(F)F)cc3F)nn2)cc(=O)[nH]1 (stereo not drawn) [Example 15, (E)-2-(but-1-enyl)-6-(1-(1-(2-fluoro-4-(trifluoromethyl)phenyl)ethyl)-1H-1,2,3-triazol-4-yl)pyrimidin-4(3H)-one] | 4.7 | 6.5 | – | – |
| Cc1nc(-c2cn(C(C)c3ccc(C(F)(F)F)c(F)c3F)nn2)cc(=O)[nH]1 (single isomer, unassigned) [Example 21, (R)- or (S)-6-(1-(1-(2,3-difluoro-4-(trifluoromethyl)phenyl)ethyl)-1H-1,2,3-triazol-4-yl)-2-methylpyrimidin-4(3H)-one] | 2.6 | 3.9 | – | – |
| Cc1nc(-c2cn(C(C)c3ccc(OC(F)(F)F)cc3F)nn2)cc(=O)[nH]1 (stereo not drawn) [Example 13, 6-(1-(1-(2-fluoro-4-(trifluoromethoxy)phenyl)ethyl)-1H-1,2,3-triazol-4-yl)-2-methylpyrimidin-4(3H)-one] | 76.8 | 98.9 | – | – |
| CC(c1ccc(C(F)(F)F)cc1F)n1cc(-c2cc(=O)[nH]c(Cc3ccccc3)n2)nn1 (stereo not drawn) [Example 12] | 8.4 | 8.9 | – | – |
| Cc1nc(-c2cn(C(C)c3ccc(C(F)(F)F)cc3)nn2)cc(=O)[nH]1 (single isomer, unassigned) [Example 17, (R)- or (S)-2-methyl-6-(1-(1-(4-(trifluoromethyl)phenyl)ethyl)-1H-1,2,3-triazol-4-yl) pyrimidin-4(3H)-one] | 36.2 | 44.7 | – | – |
| Cc1nc(-c2cn(C(C)c3ccc(C(F)(F)F)cc3)nn2)cc(=O)[nH]1 (single isomer, unassigned) [Example 18, (S)- or (R)-2-methyl-6-(1-(1-(4-(trifluoromethyl)phenyl)ethyl)-1H-1,2,3-triazol-4-yl) pyrimidin-4(3H)-one] | 47 | 54.8 | – | – |
| Cc1nc(-c2cn(C(C)c3ccc(S(F)(F)(F)(F)F)cc3)nn2)cc(=O)[nH]1 (stereo not drawn) [Example 16, 2-methyl-6-(1-(1-(4-(pentafluorosulfanyl)phenyl)ethyl)-1H-1,2,3-triazol-4-yl)pyrimidin-4(3H)-one] | 37.8 | 39.4 | – | – |
| Cc1nc(-c2cn(C(C)c3ccc(C(F)(F)F)cc3F)nn2)cc(=O)[nH]1 (single isomer, unassigned) [Example 28, (S)- or (R)-6-(1-(1-(2-fluoro-4-(trifluoromethyl)phenyl)ethyl)-1H-1,2,3-triazol-4-yl)-2-methylpyrimidin-4(3H)-one] | 7 | 9 | – | – |
| CCc1ccc(C(C)n2cc(-c3cc(=O)[nH]c(C)n3)nn2)c(Cl)c1 (single isomer, unassigned) [Example 19, (R)- or (S)-6-(1-(1-(2-chloro-4-ethylphenyl)ethyl)-1H-1,2,3-triazol-4-yl)-2-methylpyrimidin-4(3H)-one] | 2.1 | 3.4 | – | – |
| COc1ccc(Cc2nn3c([C@@H](CCCc4ccccc4)[C@@H](C)O)nc(C)c3c(=O)[nH]2)cc1OC [Bay 60-7550] | – | – | limited brain penetration | significant potency |

Further lines, with some results ahead:

| Ki (human PDE2A1) [nM] | Ki (Rhesus PDE2A3) [nM] | Compound | brain penetration [1] | potency at other PDE isoforms (other PDE isoforms) |
| --- | --- | --- | --- | --- |
| 1.5 | 1.3 | Cc1nc(-c2nnn3c2CCC3(C)c2ccc(C(F)(F)F)cc2F)cc(=O)[nH]1 (single isomer, unassigned) [Example 97, (R)- or (S)-6-(6-(2-Fluoro-4-(trifluoromethyl)phenyl)-6-methyl-5,6-dihydro-4H-pyrolo[1,2-c][1,2,3]triazol-3-yl)-2-methylpyrimidin-4(3H)-one] | – | – |
| – | 204 | Cc1nc(-c2nnc(C(C)c3ccc(C(F)(F)F)cc3)[nH]2)cc(=O)[nH]1 (stereo not drawn) [Example 60, 2-Methyl-6-(5-(1-(4-(trifluoromethyl)phenyl)ethyl)-4H-1,2,4-triazol-3-yl)pyrimidin-4(3H)-one] | – | – |
| 1.2 | 1.8 | Cc1nc(-c2nnn3c2CCC[C@]3(C)c2ccc(C(F)(F)F)cc2Cl)cc(=O)[nH]1 (single isomer, unassigned) [Example 87] | – | – |
| 0.93 | 1.7 | Cc1nc(-c2nnc3n2CCC[C@]3(C)c2ccc(C(F)(F)F)cc2F)cc(=O)[nH]1 (single isomer, unassigned) [Example 81] | – | – |
| 0.4 | 0.63 | COc1ccc(Cc2nc(-c3nnn4c3CCC[C@]4(C)c3ccc(C(F)(F)F)cc3F)cc(=O)[nH]2)cc1 (single isomer, unassigned) [Example 89] | – | – |
| 0.53 | 0.63 | Cc1nc(-c2cn(C3(c4ccc(C(F)(F)F)cc4Cl)CCC3)nn2)cc(=O)[nH]1 [Example 29, 6-(1-(1-(2-Chloro-4-(trifluoromethyl)phenyl)cyclobutyl)-1H-1,2,3-triazol-4-yl)-2-methylpyrimidin-4(3H)-one] | – | – |
| 1.6 | 2.1 | CCc1ccc(C(C)(C)n2cc(-c3cc(=O)[nH]c(C)n3)nn2)c(Cl)c1 [Example 32, 6-(1-(2-(2-chloro-4-ethylphenyl)propan-2-yl)-1H-1,2,3-triazol-4-yl)-2-methylpyrimidin-4(3H)-one] | – | – |
